{"source": "paper PMC11807725", "about": "“Screening and Antioxidant Activities Evaluation of Peptides From Abalone (Haliotis discus hannai Ino)” (Food Science & Nutrition, 2025)", "format_in_all_cases": "cell-based, human", "key": {"HUVECs [1]": {"test_system": "HUVECs", "experiment": "Establishment of the AAPH-induced HUVEC oxidative damage model (CCK-8 viability)", "conditions": "24 h; for cell survival rate: CCK-8", "experimental": "The oxidative damage model was established using the method described by Li et al. ([2023]). HUVECs were seeded into 96‐well plates at a density of 5 × 10^4 cells/mL at 100 μL/well and incubated in a CO2 incubator (37°C, 5% CO2) for 12 h."}, "HUVECs [2]": {"test_system": "HUVECs", "experiment": "Cytotoxicity testing of peptides in HUVECs (CCK-8)", "conditions": "for cytotoxicity to HUVECs (in words) / effect on HUVEC growth (in words) / toxicity to HUVECs (in words): 24 h, CCK-8; for effect on HUVEC growth (in words): within 3.9–1000 μg/mL; for effect on HUVEC viability (in words): vs control p < 0.01; for toxicity to HUVECs (in words): concentration range 3.9–1000 μg/mL", "experimental": "Peptide cytotoxicity in HUVECs was assessed using the CCK‐8 assay to determine cell viability (Suo et al. [2022]). HUVECs were digested with 0.25% trypsin, resuspended in RPMI 1640 complete medium containing 10% FBS at a density of 5 × 10^4 cells/mL, and seeded into 96‐well plates at 100 μL/well. Cells were incubated in a CO2 incubator (37°C, 5% CO2) for 12 h.\nControl and experimental groups were established with six replicates each. After cell adhesion, 10 μL of peptide solution was added to the experimental groups at final concentrations of 3.9, 7.8, 15.6, 31.25, 62.5, 125, 250, 500, and 1000 μg/mL, whereas the control group received an equivalent volume of complete medium. After 24 h of incubation in the CO2 incubator, 10 μL of CCK‐8 solution was added to each well, and cells were incubated for 1 h. Optical density (OD) was measured at 450 nm using an Infinite M1000 Pro microplate reader (Tecan, Switzerland). Cell viability was calculated using the following formula: Cell Viability%=AS−AO/AC−AO×100% where A C represents the OD of the control group, A S indicates the OD of the experimental group, and A O is the OD of the blank wells."}, "HUVECs damaged by AAPH [3]": {"test_system": "HUVECs damaged by AAPH", "conditions": "at different concentrations, 6 mmol/L AAPH model, p > 0.05", "experimental": "The experiment included control, model, and experimental groups. HUVECs were seeded into 96‐well plates at a density of 5 × 10^4 cells/mL at 100 μL per well, with six replicates per group. After cell adhesion, the model and experimental groups were treated with 10 μL of AAPH solution to a final concentration of 6 mmol/L, whereas the control group received an equivalent volume of medium. After 24 h, the experimental groups were treated with 10 μL of peptide solutions to final concentrations of 3.9, 7.8, 15.6, 31.25, 62.5, 125, 250, 500, and 1000 μg/mL. The control and model groups received an equivalent volume of medium."}, "HUVECs damaged by AAPH [4]": {"test_system": "HUVECs damaged by AAPH", "experiment": "CAT activity in AAPH-damaged HUVECs", "conditions": "250, 500, and 1000 μg/mL, 24 h after 6 mmol/L AAPH 24 h; p < 0.05; three replicates", "experimental": "(§1) The model and experimental groups were established, and HUVECs were seeded into 6-well plates at a density of 5 × 10^4 cells/mL at 2 mL/well, with three replicates per group. After cell adhesion, the model and experimental groups were treated with 2 mL of AAPH solution at a final concentration of 6 mmol/L, whereas the control group received an equivalent volume of the medium. After 24 h of incubation, experimental groups were treated with 200 μL of peptide […] at a final concentration of 250, 500, and 1000 μg/mL. The control and model groups received an equivalent volume of the medium. After 24 h incubation, the cells were collected, and the protein content was measured using the BCA protein assay kit. The activities of SOD, CAT, and GSH were determined using the respective assay kits."}, "HUVECs damaged by AAPH [5]": {"test_system": "HUVECs damaged by AAPH", "experiment": "ROS levels in AAPH-damaged HUVECs (DCFH-DA)", "conditions": "24 h after 6 mmol/L AAPH 24 h, DCFH-DA fluorescence", "experimental": "Model and experimental groups were established, and HUVECs were seeded into 96-well plates at a density of 5 × 10^4 cells/mL at 100 μL/well, with six replicates per group. After cell adhesion, the control group received the medium, whereas the model and experimental groups were treated with 10 μL of AAPH solution to a final concentration of 6 mmol/L. After 24 h of incubation, experimental groups were treated with 10 μL of peptide […] at final concentrations of 250, 500, and 1000 μg/mL. The control and model groups received an equivalent volume of the medium. After another 24 h of incubation, ROS levels were measured according to the instructions of the ROS detection kit. Cells were washed twice with PBS, treated with 10 μL of 10 μmol/L DCFH-DA working solution, and incubated in the dark for 30 min in the CO2 incubator (37°C, 5% CO2). The cells were then washed three times with PBS, and the fluorescence intensity was measured using an Infinite […] microplate reader (Tecan, Switzerland)."}, "HUVECs damaged by AAPH [6]": {"test_system": "HUVECs damaged by AAPH", "experiment": "SOD activity in AAPH-damaged HUVECs", "conditions": "250, 500, and 1000 μg/mL, 24 h after 6 mmol/L AAPH 24 h; p < 0.05; three replicates", "experimental": "as §1"}, "HUVECs damaged by AAPH [7]": {"test_system": "HUVECs damaged by AAPH", "experiment": "GSH content in AAPH-damaged HUVECs", "conditions": "250, 500, and 1000 μg/mL, 24 h after 6 mmol/L AAPH 24 h; p < 0.05; three replicates", "experimental": "as §1"}, "[8]": {"conditions": "concentrations of 3.9–500 μg/mL"}}, "note": "Peptide text beside a SMILES is read from it.", "data": [{"compound": "CC(C)(N=NC(C)(C)C(=N)N)C(=N)N.Cl.Cl", "note": "[AAPH, 2,2′‐azobis(2‐methylpropionamidine) dihydrochloride]", "values": [{"measurement": "cell survival rate", "setting": "HUVECs [1]; AAPH 4 mmol/L", "result": "92.64% ± 0.06%"}, {"measurement": "cell survival rate", "setting": "HUVECs [1]; AAPH 6 mmol/L", "result": "87.35% ± 0.05%"}, {"measurement": "cell survival rate", "setting": "HUVECs [1]; AAPH 8 mmol/L", "result": "78.64% ± 0.03%"}, {"measurement": "cell survival rate", "setting": "HUVECs [1]; AAPH 10 mmol/L", "result": "43.10% ± 0.04%"}, {"measurement": "cell survival rate", "setting": "HUVECs [1]; AAPH 12 mmol/L", "result": "5.07% ± 0.01%"}, {"measurement": "cell viability", "setting": "HUVECs [1]; AAPH 0.25, 0.5, 1, and 2 mmol/L, significantly higher than control (p < 0.01)", "result": "> 100", "unit": "%"}]}, {"compound": "CC[C@H](C)[C@H](NC(=O)[C@H](CC(=O)O)NC(=O)[C@@H](N)CC(=O)O)C(=O)N[C@@H](CCSC)C(=O)N[C@@H](CCC(=O)O)C(=O)N[C@@H](CC(=O)O)C(=O)N[C@@H](CCCCN)C(=O)N[C@@H](CC(=O)O)C(=O)N[C@@H](CC(N)=O)C(=O)N[C@@H](Cc1ccccc1)C(=O)O", "note": "[DDIMEDKDNF] (H-DDIMEDKDNF-OH; N-terminus and C-terminus assumed)", "values": [{"measurement": "cytotoxicity to HUVECs (in words)", "setting": "HUVECs [2]; 3.9–250 μg/mL", "result": "nontoxic"}]}, {"compound": "N[C@@H](CCC(=O)O)C(=O)N[C@@H](CC(=O)O)C(=O)N[C@@H](CCC(=O)O)C(=O)O", "note": "[EDE] (H-Glu-Asp-Glu-OH; N-terminus and C-terminus assumed)", "values": [{"measurement": "cell viability compared with the model group (in words)", "setting": "HUVECs damaged by AAPH [3]", "result": "did not show significant differences"}, {"measurement": "effect on HUVEC growth (in words)", "setting": "HUVECs [2]", "result": "promoted cell growth"}]}, {"compound": "NCC(=O)N[C@@H](CCC(=O)O)C(=O)N[C@@H](Cc1ccc(O)cc1)C(=O)N[C@@H](CCC(N)=O)C(=O)O", "note": "[GEYQ] (H-GEYQ-OH; N-terminus and C-terminus assumed)", "values": [{"measurement": "effect on HUVEC viability (in words)", "setting": "HUVECs [2]; 3.9–62.5 μg/mL", "result": "clear inhibitory effect"}]}, {"compound": "CC(C)[C@H](NC(=O)[C@H](CCC(=O)O)NC(=O)[C@H](CCC(=O)O)NC(=O)[C@@H](NC(=O)[C@@H](NC(=O)[C@H](CCC(=O)O)NC(=O)[C@@H]1CCCN1C(=O)[C@H](CCC(=O)O)NC(=O)[C@@H](N)Cc1ccccc1)[C@@H](C)O)[C@@H](C)O)C(=O)N[C@@H](CCCNC(=N)N)C(=O)O", "note": "[FEPETTEEVR] (H-FEPETTEEVR-OH; N-terminus and C-terminus assumed)", "values": [{"measurement": "toxicity to HUVECs (in words)", "setting": "HUVECs [2]", "result": "no toxicity"}, {"measurement": "effect on HUVEC growth (in words)", "setting": "HUVECs [2]", "result": "promoted cell growth"}]}, {"compound": "C[C@H](NC(=O)[C@@H](N)CC(=O)O)C(=O)N[C@@H](CO)C(=O)N[C@@H](CS)C(=O)N[C@@H](CCCCN)C(=O)O", "note": "[DASCK] (H-DASCK-OH; N-terminus and C-terminus assumed)", "values": [{"measurement": "toxicity to HUVECs (in words)", "setting": "HUVECs [2]", "result": "no toxicity"}, {"measurement": "effect on HUVEC growth (in words)", "setting": "HUVECs [2]", "result": "promoted cell growth"}]}, {"compound": "CSCC[C@H](NC(=O)[C@H](Cc1ccc(O)cc1)NC(=O)CNC(=O)[C@H](CCSC)NC(=O)[C@@H](NC(=O)[C@H](CO)NC(=O)[C@@H](NC(=O)[C@@H](N)CC(=O)O)[C@@H](C)O)[C@@H](C)O)C(=O)N[C@@H](C)C(=O)N[C@@H](C)C(=O)N[C@@H](CCCCN)C(=O)O", "note": "[DTSTMGYMAAK] (H-DTSTMGYMAAK-OH; N-terminus and C-terminus assumed)", "values": [{"measurement": "cell viability compared with the model group (in words)", "setting": "HUVECs damaged by AAPH [3]", "result": "did not show significant differences"}, {"measurement": "toxicity to HUVECs (in words)", "setting": "HUVECs [2]", "result": "no toxicity"}]}, {"compound": "CC[C@H](C)[C@H](NC(=O)[C@H](CCC(=O)O)NC(=O)[C@H](CCSC)NC(=O)[C@@H]1CCCN1C(=O)[C@@H](NC(=O)[C@H](Cc1c[nH]cn1)NC(=O)[C@H](CC(N)=O)NC(=O)[C@H](CO)NC(=O)[C@H](CCC(N)=O)NC(=O)[C@H](CO)NC(=O)[C@@H](NC(=O)[C@H](Cc1c[nH]c2ccccc12)NC(=O)[C@@H](NC(=O)[C@@H](N)Cc1ccccc1)[C@@H](C)O)C(C)C)[C@@H](C)CC)C(=O)N[C@@H](CCC(=O)O)C(=O)N[C@@H](CCC(=O)O)C(=O)N[C@@H](CC(=O)O)C(=O)N[C@@H](CO)C(=O)N[C@@H](C)C(=O)N[C@@H](CCCCN)C(=O)N1CCC[C@H]1C(=O)N[C@@H](Cc1c[nH]c2ccccc12)C(=O)N[C@@H](CC(C)C)C(=O)O", "note": "(H-FTWVSQSNHIPMEIEEDSAKPWL-OH; N-terminus and C-terminus assumed)", "values": [{"measurement": "effect on HUVEC viability (in words)", "setting": "HUVECs [2]; 31.25–1000 μg/mL", "result": "clear inhibitory effect"}]}, {"compound": "CC[C@H](C)[C@H](NC(=O)[C@H](Cc1c[nH]cn1)NC(=O)CNC(=O)[C@@H](N)Cc1ccccc1)C(=O)N[C@@H](CO)C(=O)N[C@H](C(=O)O)C(C)C", "note": "[FGHISV] (H-FGHISV-OH; N-terminus and C-terminus assumed)", "values": [{"measurement": "cell viability compared with the model group (in words)", "setting": "HUVECs damaged by AAPH [3]", "result": "did not show significant differences"}, {"measurement": "cytotoxicity to HUVECs (in words)", "setting": "HUVECs [2]; [8]", "result": "no cytotoxicity"}]}, {"compound": "NCCCC[C@H](NC(=O)[C@H](CC(=O)O)NC(=O)[C@H](CCC(=O)O)NC(=O)[C@H](CC(=O)O)NC(=O)[C@H](CCC(=O)O)NC(=O)[C@H](CC(=O)O)NC(=O)[C@H](CCC(=O)O)NC(=O)[C@@H](N)CC(=O)O)C(=O)O", "note": "[DEDEDEDK] (H-DEDEDEDK-OH; N-terminus and C-terminus assumed)", "values": [{"measurement": "CAT activity in the cells vs model group (in words)", "setting": "HUVECs damaged by AAPH [4]", "result": "increased significantly"}, {"measurement": "ROS content compared with the model group (in words)", "setting": "HUVECs damaged by AAPH [5]; DEDEDEDK 1000 μg/mL, p < 0.05", "result": "significantly reduced"}, {"measurement": "ROS levels compared with the model group (in words)", "setting": "HUVECs damaged by AAPH [5]; DEDEDEDK 250 and 500 μg/mL, p > 0.05", "result": "no significant change"}, {"measurement": "SOD activity in the cells vs model group (in words)", "setting": "HUVECs damaged by AAPH [6]", "result": "increased significantly"}, {"measurement": "GSH content in the cells vs model group (in words)", "setting": "HUVECs damaged by AAPH [7]", "result": "significantly increased"}, {"measurement": "effect on HUVEC growth (in words)", "setting": "HUVECs [2]", "result": "promoted cell growth"}]}, {"compound": "CC(C)[C@H](NC(=O)[C@H](C)N)C(=O)N[C@H](C(=O)N[C@@H](CCC(=O)O)C(=O)N[C@@H](CO)C(=O)N[C@@H](CCCCN)C(=O)O)C(C)C", "note": "[AVVESK] (H-AVVESK-OH; N-terminus and C-terminus assumed)", "values": [{"measurement": "cytotoxicity to HUVECs (in words)", "setting": "HUVECs [2]; [8]", "result": "no cytotoxicity"}]}]}
